What all share (test): DTP human tumour cell line panel, 48 h
The subject of assay [1] is HOP-92 NSCLC.
Assay [2] relates to SW-620 colon.
Assay [3] concerns UACC-62 melanoma.
The test system of assay [4] is ACHN renal.
For assay [5], the system named is SNB-75 CNS.
For assay [6], the system named is SK-OV-3 ovarian.
The subject of assay [7] is RXF 393 renal.
In assay [8] the test system is NCI-H23 lung.
Assay [9] relates to BT-549 breast.
For assay [10], the system named is U251 CNS.
Assay [11] concerns MALME-3M melanoma.
Assay [12] deals with SNB-19 CNS.
In assay [13] the test system is MCF7 breast.
For assay [14], the system named is OVCAR-5 ovarian.
In assay [15] the test system is MDA-MB-435.
The test system of assay [16] is MOLT-4 leukemia.
Assay [17] concerns NCI-H226 lung.
For assay [18], the system named is KM12 colon.
The subject of assay [19] is RPMI-8226 leukemia.

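All cell lines were grown in 96-well plates and treated with compound for 48 hours. At the TGI there is no net growth.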 Bounds are passed on as bounds.

As for `CC1(C)[C@H](C(=O)O)N2C(=O)[C@@H](NS(=O)(=O)c3ccc([N+](=O)[O-])cc3)[C@H]2S1(=O)=O`, the TGI in assay [1], in assay [2], in assay [3], in assay [4], in assay [5] and in assay [6] was above 100 µM in each case. The TGI in assay [7], in assay [8], in [9], in assay [10], in assay [11] and in assay [12] was above 100 µM each time. The concentration for total growth inhibition (TGI) in assay [13], in assay [14], in assay [15], in assay [16], in [17] and in assay [18] was above 100 µM in each case.

Turning to `CCOC(=O)c1cnn2c1ncc1c(=O)n(NC(N)=O)ccc12`, the concentration for total growth inhibition (TGI) in assay [1], in [2], in assay [3], in assay [4], in assay [5] and in assay [6] was above 100 µM in each case. Moreover, the TGI in assay [8], in assay [9], in [10], in assay [11], in assay [12] and in [13] was above 100 µM in each case. The TGI in assay [14], in assay [15], in [16], in assay [17] and in assay [18] was above 100 µM in each case.

Take `CC[C@@]1(N(C)C)C(=O)OCc2c1cc1n(c2=O)Cc2cc3ccccc3nc2-1`: the TGI (commonly the concentration giving total growth inhibition) was 69.6 µM in [1]; above 100 µM in assay [2]; 56.6 µM in assay [3]; 42.2 µM in [4]; 34.5 µM in assay [5]; above 100 µM in assay [19]. For the same molecule, the TGI in [6] is 51.5 µM; in assay [7], 31 µM; in assay [8] it was 32 µM; in assay [9], 39.5 µM; in assay [10], above 100 µM; in assay [11], 55.3 µM. The TGI in assay [12] was above 100 µM; in assay [13] it was above 100 µM; in assay [14], above 100 µM; in [15], above 100 µM; in assay [17] it was 90.1 µM; in assay [18], above 100 µM.

As for `CN(C)CCOc1cccc2c1C(=O)c1ccccc1C2=O`, the concentration for total growth inhibition (TGI) in assay [1] was 29 µM; in assay [2], 43.7 µM; in assay [3], 29.8 µM; in assay [4], above 100 µM; in assay [5], 28.8 µM; in assay [6], 81.2 µM. Besides, the TGI in assay [7] came to 27.3 µM; in assay [8] it was 24 µM; in assay [10], 72.5 µM; in assay [11], 26.5 µM; in [12], 66.3 µM; in [14], 40.8 µM. Further, the figures for the total growth inhibition concentration (TGI) in assay [16], in assay [17] and in assay [18] were 21.5 µM, 22.2 µM and 26.2 µM, respectively.

Turning to `COc1cc2c[n+](C)c3c4cc(OC)c(OC)cc4c(OC)cc3c2cc1OC`, the TGI in [2] is above 100 µM; in assay [3], above 100 µM; in assay [4] it was above 100 µM; in assay [5], above 95.1 µM; in assay [19] it was above 100 µM; in assay [6], above 100 µM. Also, the total growth inhibition concentration (TGI) in assay [7] is above 100 µM; in assay [8], 36.8 µM; in [9], 57 µM; in assay [10], above 51.8 µM; in [11] it was 9.44 µM; in [12], above 100 µM. The TGI in assay [13] is above 100 µM; in assay [14] it was above 100 µM; in assay [15] it was above 60.4 µM; in assay [18], above 67.1 µM.

As for `CCc1ccc(N=Cc2cc(OC)c(OC)c(OC)c2)cc1`, the TGI in [1] was above 100 µM; in [2], 28.7 µM; in assay [3], above 100 µM; in [4], above 100 µM; in [5], above 100 µM; in assay [19], 47.2 µM. The concentration for total growth inhibition (TGI) in [6], in [7], in [8], in assay [10], in [11] and in [12] was above 100 µM throughout. The TGI in assay [14], in [16] and in assay [18] was above 100 µM throughout.

Regarding `COc1ccc(/C=C2\CCC(C)C3=C(c4ccc(OC)c(OC)c4)C(C#N)=C(N)OC32)cc1OC` (configuration not stated), the total growth inhibition concentration (TGI) in assay [2] is above 100 µM; in assay [3] it was 7.34 µM; in assay [4] it was above 100 µM; in [5] it was 8.63 µM; in assay [19] it was 5.76 µM; in [6], 36.4 µM. Also, the TGI in [7] is 3.99 µM; in assay [8], 13.6 µM; in assay [9], 24.5 µM; in assay [10], above 100 µM; in assay [11], 32.2 µM; in [12] it was above 100 µM. Further, the TGI in [13] came to 19.5 µM; in assay [14] it was 23.6 µM; in assay [15] it was 10.1 µM; in assay [17], 9.83 µM; in [18] it was 66.5 µM.

Turning to `Cc1cn(Cc2ccccc2CCO)c(=S)[nH]c1=O`, the total growth inhibition concentration (TGI) in assay [1], in assay [2], in assay [3], in assay [4], in assay [5] and in [19] was above 100 µM each time. The concentration for total growth inhibition (TGI) in assay [6], in assay [7], in [8], in assay [10], in assay [11] and in assay [12] was above 100 µM in each case. The TGI in assay [14], in assay [16], in assay [17] and in assay [18] was above 100 µM throughout.

Source of the values: PubChem BioAssay (NCI).
